Measured values as given in patent US20260315609A1, “MIXED VASOPRESSIN RECEPTOR AGONIST-ANTAGONIST FOR TREATING END-STAGE LIVER DISEASE AND COMPLICATIONS ASSOCIATED THEREOF” (FERRING B.V., priority 2022, published 2026).
Values joined by “and” are separate entries in the source; they are usually repeats but may differ in a detail not shown here. Equal entries are not always repeated. Starred links: 1 amine or outer side, 2 acyl side, 3 side chain; linkers in the order of their positions; H or OH if unused. Positions of bridges follow the written chain, without caps; N, C: chain ends. Non-standard residues stand in square brackets, D forms with d. Residues, ends and D or L forms follow the SMILES beside them. Chains are numbered I, II in the order given. *: point of attachment. isoGln = NC(=O)[C@H](CCC(=O)[*:2])N[*:1]; εLys = N[C@@H](CCCCN[*:1])C(=O)[*:2]; Dab = NCC[C@H](N)C(=O)O; PhAc = O=C(Cc1ccccc1)*

What was measured:
[1] = test system: bile duct ligation (BDL) and ascites rat model; assay: Bile duct ligation (BDL) and ascites rats, SC b.i.d. 5 days; assay type: in vivo; details: for Animal Body Weight: 99.5 μg FB/kg SC b.i.d.
Procedure: Animals: Male Sprague Dawley rats weighing 300-400 grams with bile duct ligations (BDL) performed at 7 weeks of age by the vendor (Harlan, IN). BDL rats were administered 50 μg of vitamin K1 at the time of BDL surgery, prior to shipment, and then once weekly to reduce potential mortality from hemorrhagic complications.
The working solution was stored at 4° C. over the course of the study and warmed to room temperature for 30 minutes before administration.
Animals were weighed daily. […] Each metabolic cage was set up for continuous measurement of spontaneous urine output via force transducers placed […] the urine collection vials to monitor and record the time course of urine output. Data from the calibrated force transducers every time the rats void. […] Only 16 metabolic cages could be used, urine, water, and food intake data were not collected for one animal in the vehicle group. Animals were returned to their home cages for the remainder of the study and were sacrificed before the second treatment on the fifth day. Blood samples were collected from each animal via cardio puncture. Laparotomies were performed and ascites fluid collected and volume measured by pipet. Spleens were dissected from each animal, any excessive fat or connective tissue was removed and the spleens were weighted.

[2] = Preceding clinical study, Cmax; assay type: in vivo, human; details: 0.3 mg
Procedure: The originally planned escalating doses were 0.1, 0.3, 1, 3, 6, and 10 mg, respectively. […] The doses and/or infusion rates could be adjusted based on recommendations from the SRC.

skin blood flow (SBF) = assay: Skin blood flow (SBF), laser Doppler, anesthetized Wistar rats, IV infusion; assay type: in vivo, rat
Procedure: This study was performed over multiple experiments using a total of 48 adult male Wistar rats. […] Compounds were infused via an IV catheter at six sequentially increasing doses.
On the day of experimentation animals were anesthetized and instrumented. A tracheostomy was performed to allow assisted respiration and three catheters were placed. Laser Doppler probes were positioned on a shaved portion of the animal's lower abdominal skin for blood-flow measurements. Ventilation was initiated, and baseline readings for the primary parameter of skin blood flow (SBF) were recorded. Readings for the secondary parameters were also recorded: (1) blood lactate concentration, (2) mean arterial pressure (MAP), and (3) blood pH. Data collection was performed continuously for SBF and MAP using NOTOCORD-hem™ (Instem), and blood samples were taken at each compound dose and immediately analyzed using an i-STAT® meter.
After the final dose administration, animals were euthanized and a final SBF measurement was recorded to detect any signal from the flow probe after the animal's heart stopped beating to control for a signal not attributed to blood flow. Animal body temperature, pulse, and ventilation adequacy were monitored throughout the procedure.

[3] = test system: CCl4-induced rat model of cirrhosis and ascites; assay: CCl4-induced cirrhosis and ascites rats, cohort 2 (single IV bolus), renal excretory function; assay type: in vivo; details: 100 μg/kg IV
Procedure: Animals: 90 male Wistar rats (Charles River Laboratories, Espana S.A) weighing 200-220 grams at the time of receipt were subjected to a cirrhosis induction program; high dose CCl4 was administered by inhalation twice weekly (Monday and Friday) and phenobarbital (0.3 g/L) was added to drinking water. In some instances, liver damage in this model is caused by hepatotoxic CCl4 metabolites produced in the liver. In some instances, phenobarbital induction of the microsomal enzyme oxidizing system exaggerates the intensity of the hepatic necrosis. The data was collected from the treatment of 44 cirrhotic rats with ascites. Animals were allowed free access to food and water throughout the study.
The study consisted of 3 treatment cohorts, as detailed in Table 10. Animals developing and maintaining ascites for 2 weeks were randomly assigned to treatment groups. Ringer Braun saline solution was used as vehicle. IV bolus were administered via femoral veins.
Cohort 2: Animals were anesthetized and the left femoral artery and vein catheterized. Bladders were exposed by suprapubic incision and catheterized for urine collection. A priming dose of PAH (4 mg/animal) was administered via the jugular vein followed by a constant infusion (2 mL/hr) of Ringer solution containing 4 mg/mL PAH. After 30 minutes of infusion, a baseline 30 minute urine collection was obtained for urine volume, urine sodium content, urine creatinine content, and PAH measurements. In the middle of the 30 minute urine collection, a blood sample (0.8 mL) was obtained via the femoral artery catheter for PAH and creatinine measurements. […] Five 30 minute urine collections were performed over 150 minutes, with blood samples collected in the middle of each 30 minute urine collection. Following blood sampling, packed cells were reconstituted with Ringer solution and reinjected over a period of 3 minutes.

CC[C@H](C)[C@@H]1NC(=O)[C@H](Cc2ccccc2)NC(=O)[C@@H](N)CSSC[C@@H](C(=O)N2CCC[C@H]2C(=O)N[C@@H](CCNC(=O)[C@@H](N)CCCCNC(=O)[C@H](CCCCNC(C)=O)NC(=O)CC[C@H](NC(=O)[C@H](CCCNC(=N)N)NC(=O)[C@@H]2CCCN2C(=O)[C@H](C)NC(=O)[C@H](CC(N)=O)NC(=O)[C@H](CCC(N)=O)NC(=O)[C@H](Cc2ccccc2)NC(=O)[C@@H](Cc2ccc(OC)cc2)NC(=O)Cc2ccccc2)C(N)=O)C(=O)NCC(N)=O)NC(=O)[C@H](CC(N)=O)NC(=O)[C@H](CCC(N)=O)NC1=O [Compound 1, Glycinamide, L-cysteinyl-L-phenylalanyl-L-isoleucyl-L-glutaminyl-L-asparaginyl-L-cysteinyl-L-prolyl-N4-(phenylacetyl-O-methyl-D-tyrosyl-L-phenylalanyl-L-glutaminyl-L-asparaginyl-L-alanyl-L-prolyl-L-arginyl-L-isoglutamyl-N5-acetyl-L-lysyl-L-ε-lysyl)-L-2,4-diaminobutyryl-, cyclic (1→6)-disulfide] (I: H-CFIQNCP[Dab]G-NH2 / II: PhAc-[dY](Me)FQNAPR[isoGln]K(Ac)[εLys]; disulfide I:1-I:6; amide I:8-II:C)
Animal Body Weight ([1]; day 1): 362.4 g | Animal Body Weight ([1]; day 2): 330.2 g | Animal Body Weight ([1]; day 3): 324.6 g | Animal Body Weight ([1]; day 4): 329.0 g | Animal Body Weight ([1]; day 5): 329.8 ± 2.9 g and 329.8 g | Urine Volume ([1]; 5-24 hr): 31.2 mL | Urine Volume, Δ versus vehicle ([1]; 5-24 hr): 46% | Urine creatinine content ([1]; 5-24 hr): 9.5 mg | Urine creatinine content, Δ versus vehicle ([1]; 5-24 hr): −32% | Urine potassium content ([1]; 5-24 hr): 0.8 mEq | Urine potassium content, Δ versus vehicle ([1]; 5-24 hr): −60% | Urine sodium content ([1]; 5-24 hr): 1.1 mEq | Urine sodium content, Δ versus vehicle ([1]; 5-24 hr): 85% | Urine Volume ([1]; 4 hr): 9.8 mL | Urine Volume, Δ versus vehicle ([1]; 4 hr): 367% | Urine creatinine content ([1]; 4 hr): 2.7 mg | Urine creatinine content, Δ versus vehicle ([1]; 4 hr): 8% | Urine potassium content ([1]; 4 hr): 1.1 mEq | Urine potassium content, Δ versus vehicle ([1]; 4 hr): 394% | Urine sodium content ([1]; 4 hr): 2.6 mEq | Urine sodium content, Δ versus vehicle ([1]; 4 hr): 2342% | Net Fluid Balance ([1]; 24 hours (vehicle 10.0)): -24.3 mL | Urine Volume ([1]; 24 hr): 41.0 ± 4.3 mL and 41.0 mL | decrease in mean body weight ([1]; between day 1 and 2): 32.2 g | further decrease in mean body weight ([1]; between days 2 and 3): 5.6 g | BUN ([1]; day 5): 34 mg/dL | BUN, Δ versus vehicle ([1]; day 5): 64% | Cl ([1]; day 5): 100 mEq/L | Cl, Δ versus vehicle ([1]; day 5): −3% | Creatinine (blood) ([1]; day 5): 0.3 mg/dL | Na (blood) ([1]; day 5): 139 mEq/L | Na (blood), Δ versus vehicle ([1]; day 5): −1% | PHOS ([1]; day 5): 5.1 mg/dL | PHOS, Δ versus vehicle ([1]; day 5): −21% | difference in final body weight versus vehicle ([1]; day 5): 39.8 g | Spleen Weight ([1]; day 5 (vehicle 2.7)): 2.3 g | Ascites Volume ([1]; day 5 (vehicle 19.8)): 3.8 ± 1.8 mL and 3.8 mL | hyponatremia ([1]; repeat administration over 5 days): failed to provide hyponatremia | Cmax ([2]; 6 hour i.v. infusion): up to 6 ng/mL | Cmax ([2]; s.c. injection): up to 2.5 ng/mL | SBF ED50 (skin blood flow (SBF)): 25.2 pmol/kg/min | SBF Emax (skin blood flow (SBF)): 38.6% | greatest percent change from baseline in skin flow (skin blood flow (SBF)): −42.1% | Sodium Excretion ([3]; 0 min): 0.4 μEq/min | Urine Volume ([3]; 0 min): 8.4 µL/min | Sodium Excretion ([3]; 30 min): 1.1 μEq/min | Urine Volume ([3]; 30 min): 16.4 µL/min | Sodium Excretion ([3]; 60 min): 4.1 μEq/min | Urine Volume ([3]; 60 min): 26.5 µL/min | Sodium Excretion ([3]; 90 min): 5.3 μEq/min | Urine Volume ([3]; 90 min): 26.2 µL/min | Sodium Excretion ([3]; 120 min): 7.0 μEq/min | Urine Volume ([3]; 120 min): 32.3 µL/min | Sodium Excretion ([3]; 150 min): 7.2 μEq/min | Urine Volume ([3]; 150 min): 32.7 µL/min
